Counter-ions that a name gives are not always drawn.
System: Escherichia coli ATCC 25922
Assay: 50% growth inhibitory concentration (IC50) determination, Iso-Sensitest broth dilution
Assay type: cell-based
Details: Escherichia coli, ATCC25922, 16 h, strain Escherichia coli ATCC 25922; 10-point broth dilution, optical density at 600 nm over 16 h; read-out: Escherichia coli growth inhibition IC50
Procedure, shortened: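 Growth was tracked as optical density at 600 nm every 20 minutes for 16 h at 35±2° C. Compounds from DMSO stocks were serially diluted twofold over 10 points (e.g. 50–0.097 μM final) in Iso-Sensitest broth. Inhibition computed in log-phase growth to give IC50.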

## CNC(=O)COc1nc(C)c2c(c1C)CC(CNCCC1CN(c3cnc4c(n3)NC(=O)CO4)C(=O)O1)C2 (centres unmarked) [Example 111, 2-[[1,4-dimethyl-6-[[2-[2-oxo-3-(3-oxo-4H-pyrazino[2,3-b][1,4]oxazin-6-yl)-1,3-oxazolidin-5-yl]ethylamino]methyl]-6,7-dihydro-5H-cyclopenta[c]pyridin-3-yl]oxy]-N-methylacetamide]
  IC50: 489 nM

## CNC(=O)COc1cc(C)c2c(c1C)CC(CNCCC1CN(c3ccc4c(n3)NC(=O)CO4)C(=O)O1)C2 (centres unmarked) [Example 112, 2 2-[[4,7-dimethyl-2-[[2-[2-oxo-3-(3-oxo-4H-pyrido[3,2-b][1,4]oxazin-6-yl)-1,3-oxazolidin-5-yl]ethylamino]methyl]-2,3-dihydro-1H-inden-5-yl]oxy]-N-methylacetamide]
  IC50: 303 nM

## CNC(=O)COc1cc(C)c2c(c1C)CC(CNCCC1CN(c3cnc4c(n3)NC(=O)CO4)C(=O)O1)C2 (centres unmarked) [Example 113, 2-[[4,7-dimethyl-2-[[2-[2-oxo-3-(3-oxo-4H-pyrazino[2,3-b][1,4]oxazin-6-yl)-1,3-oxazolidin-5-yl]ethylamino]methyl]-2,3-dihydro-1H-inden-5-yl]oxy]-N-methylacetamide]
  IC50: 323 nM

## CNC(=O)COc1cc(C)c2c(c1C)CC(CNCCC1CN(c3ccc4c(n3)NC(=O)CS4)C(=O)O1)C2 (centres unmarked) [Example 114, 2-[[4,7-dimethyl-2-[[2-[2-oxo-3-(3-oxo-4H-pyrido[3,2-b][1,4]thiazin-6-yl)-1,3-oxazolidin-5-yl]ethylamino]methyl]-2,3-dihydro-1H-inden-5-yl]oxy]-N-methylacetamide]
  IC50: 217 nM

## CS(=O)(=O)NCCOc1cc(C#N)c2c(c1)CC(CNCCC1CN(c3ccc4c(n3)NC(=O)CO4)C(=O)O1)C2 (centres unmarked) [Example 115, N-[2-[[7-cyano-2-[[2-[2-oxo-3-(3-oxo-4H-pyrido[3,2-b][1,4]oxazin-6-yl)-1,3-oxazolidin-5-yl]ethylamino]methyl]-2,3-dihydro-1H-inden-5-yl]oxy]ethyl]methanesulfonamide]
  IC50: 261 nM

## NCCOc1ccc2c(c1Cl)CC(CNCCC1CN(c3ccc4c(n3)NC(=O)CO4)C(=O)O1)C2 (centres unmarked) [Example 116, 6-[5-[2-[[5-(2-Aminoethoxy)-4-chloro-2,3-dihydro-1H-inden-2-yl]methylamino]ethyl]-2-oxo-1,3-oxazolidin-3-yl]-4H-pyrido[3,2-b][1,4]oxazin-3-one]
  IC50: < 97.7 nM

## NC1(COc2ccc3c(c2Cl)CC(CNCCC2CN(c4ccc5c(n4)NC(=O)CO5)C(=O)O2)C3)CC1 (centres unmarked) [Example 117, 6-[5-[2-[[5-[(1-aminocyclopropyl)methoxy]-4-chloro-2,3-dihydro-1H-inden-2-yl]methylamino]ethyl]-2-oxo-1,3-oxazolidin-3-yl]-4H-pyrido[3,2-b][1,4]oxazin-3-one; formic acid]
  IC50: < 97.7 nM

## NCCOc1ccc2c(c1Cl)CC(NCCCC1CN(c3ccc4c(n3)NC(=O)CO4)C(=O)O1)C2 (centres unmarked) [Example 118, 6-[5-[3-[[5-(2-aminoethoxy)-4-chloro-2,3-dihydro-1H-inden-2-yl]amino]propyl]-2-oxo-1,3-oxazolidin-3-yl]-4H-pyrido[3,2-b][1,4]oxazin-3-one; formic acid]
  IC50: < 97.7 nM

## NC1(COc2ccc3c(c2Cl)CC(NCCCC2CN(c4ccc5c(n4)NC(=O)CO5)C(=O)O2)C3)CC1 (centres unmarked) [Example 119, 6-[5-[3-[[5-[(1-aminocyclopropyl)methoxy]-4-chloro-2,3-dihydro-1H-inden-2-yl]amino]propyl]-2-oxo-1,3-oxazolidin-3-yl]-4H-pyrido[3,2-b][1,4]oxazin-3-one; formic acid]
  IC50: < 97.7 nM

## O=C1COc2ccc(N3CC(NCCNC4Cc5cccc(F)c5C4)CC3=O)nc2N1 (centres unmarked) [Example 120, 6-[4-[2-[(4-fluoro-2,3-dihydro-1H-inden-2-yl)amino]ethylamino]-2-oxopyrrolidin-1-yl]-4H-pyrido[3,2-b][1,4]oxazin-3-one; formic acid]
  IC50: 440 nM

## N#Cc1cccc2c1CC(NCCNC1CC(=O)N(c3ccc4c(n3)NC(=O)CO4)C1)C2 (centres unmarked) [Example 121, 2-[2-[[5-oxo-1-(3-oxo-4H-pyrido[3,2-b][1,4]oxazin-6-yl)pyrrolidin-3-yl]amino]ethylamino]-2,3-dihydro-1H-indene-4-carbonitrile]
  IC50: 167 nM

## NC1(COc2cc3c(c(Cl)n2)CC(CNCCC2CN(c4ccc5c(n4)NC(=O)CO5)C(=O)O2)C3)CC1 (centres unmarked) [Example 122, 6-[5-[2-[[3-[(1-aminocyclopropyl)methoxy]-1-chloro-6,7-dihydro-5H-cyclopenta[c]pyridin-6-yl]methylamino]ethyl]-2-oxo-1,3-oxazolidin-3-yl]-4H-pyrido[3,2-b][1,4]oxazin-3-one; formic acid]
  IC50: < 97.7 nM

## NC1c2ccnc(Cl)c2CC1CNCCC1CN(c2ccc3c(n2)NC(=O)CO3)C(=O)O1 (stereo not drawn) [Example 123, 6-[2-oxo-5-[2-[[5,6-trans-5-amino-1-chloro-6,7-dihydro-5H-cyclopenta[c]pyridin-6-yl]methylamino]ethyl]-1,3-oxazolidin-3-yl]-4H-pyrido[3,2-b][1,4]oxazin-3-one; formic acid]
  IC50: 248 nM

## N#Cc1c(OCC2(N)CC2)ccc2c1CC(CNCCC1CN(c3ccc4c(n3)NC(=O)CO4)C(=O)O1)C2 (centres unmarked) [Example 124, 5-[(1-aminocyclopropyl)methoxy]-2-[[2-[2-oxo-3-(3-oxo-4H-pyrido[3,2-b][1,4]oxazin-6-yl)-1,3-oxazolidin-5-yl]ethylamino]methyl]-2,3-dihydro-1H-indene-4-carbonitrile hydrochloride]
  IC50: < 97.7 nM

## N#Cc1nc(OCC2(N)CC2)cc2c1CC(CNCCC1CN(c3ccc4c(n3)NC(=O)CO4)C(=O)O1)C2 (centres unmarked) [Example 125]
  IC50: 111 nM

## NCCOc1cc2c(c(Cl)n1)CC(CNCCC1CN(c3ccc4c(n3)NC(=O)CO4)C(=O)O1)C2 (centres unmarked) [Example 126, 6-[5-[2-[[3-(2-aminoethoxy)-1-chloro-6,7-dihydro-5H-cyclopenta[c]pyridin-6-yl]methylamino]ethyl]-2-oxo-1,3-oxazolidin-3-yl]-4H-pyrido[3,2-b][1,4]oxazin-3-one]
  IC50: 260 nM

## N#Cc1nc(OCCN)cc2c1CC(CNCCC1CN(c3ccc4c(n3)NC(=O)CO4)C(=O)O1)C2 (centres unmarked) [Example 127, 3-(2-aminoethoxy)-6-[[2-[2-oxo-3-(3-oxo-4H-pyrido[3,2-b][1,4]oxazin-6-yl)-1,3-oxazolidin-5-yl]ethylamino]methyl]-6,7-dihydro-5H-cyclopenta[c]pyridine-1-carbonitrile; formic acid]
  IC50: 189 nM

## N#Cc1c(OCCN)ccc2c1CC(CNCCC1CN(c3ccc4c(n3)NC(=O)CO4)C(=O)O1)C2 (centres unmarked) [Example 128, 5-(2-aminoethoxy)-2-[[2-[2-oxo-3-(3-oxo-4H-pyrido[3,2-b][1,4]oxazin-6-yl)-1,3-oxazolidin-5-yl]ethylamino]methyl]-2,3-dihydro-1H-indene-4-carbonitrile; formic acid]
  IC50: 98.1 nM

## N#Cc1c(OCC2CNC2)ccc2c1CC(CNCCC1CN(c3ccc4c(n3)NC(=O)CO4)C(=O)O1)C2 (centres unmarked) [Example 129, 5-(azetidin-3-ylmethoxy)-2-[[2-[2-oxo-3-(3-oxo-4H-pyrido[3,2-b][1,4]oxazin-6-yl)-1,3-oxazolidin-5-yl]ethylamino]methyl]-2,3-dihydro-1H-indene-4-carbonitrile; formic acid]
  IC50: 692 nM

## N#Cc1c(OC2CNC2)ccc2c1CC(CNCCC1CN(c3ccc4c(n3)NC(=O)CO4)C(=O)O1)C2 (centres unmarked) [Example 132, 5-(azetidin-3-yloxy)-2-[[2-[2-oxo-3-(3-oxo-4H-pyrido[3,2-b][1,4]oxazin-6-yl)-1,3-oxazolidin-5-yl]ethylamino]methyl]-2,3-dihydro-1H-indene-4-carbonitrile; formic acid]
  IC50: 145 nM

## CC(N)COc1ccc2c(c1C#N)CC(CNCCC1CN(c3ccc4c(n3)NC(=O)CO4)C(=O)O1)C2 (centres unmarked) [Example 134, 5-(2-aminopropoxy)-2-[[2-[2-oxo-3-(3-oxo-4H-pyrido[3,2-b][1,4]oxazin-6-yl)-1,3-oxazolidin-5-yl]ethylamino]methyl]-2,3-dihydro-1H-indene-4-carbonitrile; formic acid]
  IC50: 114 nM

## N#Cc1c(OCC2CCN2)ccc2c1CC(CNCCC1CN(c3ccc4c(n3)NC(=O)CO4)C(=O)O1)C2 (centres unmarked) [Example 137, 5-(azetidin-2-ylmethoxy)-2-[[2-[2-oxo-3-(3-oxo-4H-pyrido[3,2-b][1,4]oxazin-6-yl)-1,3-oxazolidin-5-yl]ethylamino]methyl]-2,3-dihydro-1H-indene-4-carbonitrile; formic acid]
  IC50: 801 nM

## N#Cc1cccc2c1CC(CNCCC1(N)CC(=O)N(c3ccc4c(n3)NC(=O)CO4)C1)C2 (centres unmarked) [Example 138, 2-[[2-[3-amino-5-oxo-1-(3-oxo-4H-pyrido[3,2-b][1,4]oxazin-6-yl)pyrrolidin-3-yl]ethylamino]methyl]-2,3-dihydro-1H-indene-4-carbonitrile]
  IC50: 359 nM

## NC1(CCNCC2Cc3cccc(Cl)c3C2)CC(=O)N(c2ccc3c(n2)NC(=O)CO3)C1 (centres unmarked) [Example 140, 6-[4-amino-4-[2-[(4-chloro-2,3-dihydro-1H-inden-2-yl)methylamino]ethyl]-2-oxopyrrolidin-1-yl]-4H-pyrido[3,2-b][1,4]oxazin-3-one]
  IC50: 314 nM

## N#Cc1c(OCC2CCCN2)ccc2c1CC(CNCCC1CN(c3ccc4c(n3)NC(=O)CO4)C(=O)O1)C2 (centres unmarked) [Example 141, 2-[[2-[2-oxo-3-(3-oxo-4H-pyrido[3,2-b][1,4]oxazin-6-yl)-1,3-oxazolidin-5-yl]ethylamino]methyl]-5-(pyrrolidin-2-ylmethoxy)-2,3-dihydro-1H-indene-4-carbonitrile; formic acid]
  IC50: 186 nM

## NC1(CCNCC2CN(c3ccc4c(n3)NC(=O)CO4)C(=O)O2)Cc2cccc(Cl)c2C1 (centres unmarked) [Example 142, 6-[5-[[2-(2-amino-4-chloro-1,3-dihydroinden-2-yl)ethylamino]methyl]-2-oxo-1,3-oxazolidin-3-yl]-4H-pyrido[3,2-b][1,4]oxazin-3-one; formic acid]
  IC50: < 97.7 nM
